According to patent US20260131015A1, “NEODEGRADER CONJUGATES” (priority 2022, published 2026):

Experiments:
[1] = test system: IMR32 human neuroblastoma (NB) cell line; assay: In Vitro Cytotoxicity Assay I (WST-8 cell viability); assay type: cell-based; details: IMR32, 120 hours, WST-8, Table 3
Method: (§1) The cell viability was determined by colorimetric WST-8 assay (Dojindo Molecular Technologies, Inc.). The OD450 value was read using the SpectraMax M5 plate reader. The values were normalized for each cell line, and IC50 values were calculated using the Prism software.

[2] = test system: NCI-H526 human SCLC cell line; assay: as above; assay type: cell-based; details: NCI-H526, 120 hours, WST-8, Table 3
Method: as §1

NCI-H1048 SCLC cell line = assay: In Vitro Cytotoxicity Assay II (WST-8 cell viability); assay type: cell-based, human; details: NCI-H1048, 120 hours, WST-8, Table 4
Method: as §1, with “Cell lines were harvested and plated into 96-well plates. […] The cell” for “The cell”, “line, and IC50s were calculated” for “line, and IC50 values were calculated”

NCI-H526 SCLC cell line = assay: as above; assay type: cell-based, human; details: NCI-H526, 120 hours, WST-8, Table 4
Method: as §1, with “Cell lines were harvested and plated into 96-well plates. […] The cell” for “The cell”, “line, and IC50s were calculated” for “line, and IC50 values were calculated”

NCI-H510A SCLC cell line = assay: as above; assay type: cell-based; details: 120 hours, WST-8, Table 4
Method: as §1, with “Cell lines were harvested and plated into 96-well plates. […] The cell” for “The cell”, “line, and IC50s were calculated” for “line, and IC50 values were calculated”

NCI-H82 SCLC cell line = assay: as above; assay type: cell-based; details: NCI-H82, 120 hours, WST-8, Table 4
Method: as §1, with “Cell lines were harvested and plated into 96-well plates. […] The cell” for “The cell”, “line, and IC50s were calculated” for “line, and IC50 values were calculated”

NCI-H146 SCLC cell line = assay: as above; assay type: cell-based; details: NCI-H146, 120 hours, WST-8, Table 4
Method: as §1, with “Cell lines were harvested and plated into 96-well plates. […] The cell” for “The cell”, “line, and IC50s were calculated” for “line, and IC50 values were calculated”

[3] = test system: IMR32 human neuroblastoma (NB) cell line; assay: In Vitro Cytotoxicity Assay III (WST-8 cell viability); assay type: cell-based; details: IMR32, 120 hours, WST-8, Table 5
Method: as §1, with “Cell lines were harvested and plated into 96-well plates. […] The cell” for “The cell”

[4] = test system: NCI-H526 human SCLC cell line; assay: as above; assay type: cell-based; details: NCI-H526, 120 hours, WST-8, Table 5
Method: as §1, with “Cell lines were harvested and plated into 96-well plates. […] The cell” for “The cell”

Cc1ccc(NC(=O)NCc2ccc3c(c2)CN(C2CCC(=O)NC2=O)C3=O)cc1Cl (stereo not drawn) [CC-885, reference compound]
IC50 [1]: 0.145 nM
IC50 [2]: 0.118 nM
IC50 (NCI-H1048 SCLC cell line): 0.0409 nM
IC50 (NCI-H526 SCLC cell line): 0.177 nM
IC50 (NCI-H510A SCLC cell line): 0.23 nM
IC50 (NCI-H82 SCLC cell line): 0.603 nM
IC50 (NCI-H146 SCLC cell line): 0.527 nM
IC50 [3]: 0.0994 nM
IC50 [4]: 0.128 nM
